# Assay results reported in patent US20260256741A1, “ANTICANCER MALEIMIDE DERIVATIVES FOR USE WITH IMMUNE CHECKPOINT BLOCKADE” (BROWN UNIVERSITY, priority 2022, published 2026).
# Assays:
# HT-29 GFP+ cells = experiment: Single-color GFP+ immune cell co-culture, HT-29; type: cell-based, human; conditions: 48 hours
# Procedure: 50,000 HT-29 or HCT 116 cells were seeded in a 12-well tissue culture plate and allowed to adhere overnight. They were then transduced with lentivirus containing the plasmid pLenti_CMV_GFP_Hygro [pLenti CMV GFP Hygro (656-4) was a gift from Eric Campeau & Paul Kaufman (Addgene viral prep #17446-LV; RRID: Addgene_17446)] at a multiplicity of infection of 10 with 8 μg/mL polybrene (hexadimethrine bromide [Cat #107689, Sigma Aldrich, St. Louis, MO, USA) for 24 hours before washing with PBS and replacing with fresh medium (49). The cells were then sorted for GFP-positivity using a BD FACSAria™ III Cell Sorter (RRID: SCR_016695).
# (§1) 5000 HT-29 GFP+ or HCT 116 GFP+ cells were plated per well in a clear-bottom, black-walled 96-well tissue culture plate and were allowed to adhere overnight. Cells were subsequently treated with DMSO, 5 μM elraglusib, and/or 5000 TALL-104 or NK-92 cells (for an effector-to-tumor ratio of 1:1) for 48 hours. Nine images were taken per well at 10× magnification using a Molecular Devices ImageXpress® Confocal HT.ai High-Content Imaging System and quantified for the number of GFP+ objects using the MetaXpress (RRID: SCR_016654) software (Molecular Devices, San Jose, CA, USA). 40× Images were also taken at 24 hours for representative images of cellular morphology changes. Statistical analysis was done using GraphPad Prism 9 (RRID: SCR_002798).
# [1] = tested on: CRC (HCT-116, HT-29) and TALL-104 cells; experiment: Pyroptotic events in 40x co-culture images; type: cell-based, human
# Procedure: as §1
# [2] = tested on: CT-26 MSS colon carcinoma; experiment: Syngeneic murine colon carcinoma BALB/c model using MSS cell line CT-26, survival; type: in vivo, BALB/c mice; conditions: IP twice a week: elraglusib 70 mg/kg, anti-PD-1 10 mg/kg, anti-PD-L1 10 mg/kg
# Procedure: The experimental in vivo protocol (Protocol #19-01-003) was approved by the Institutional Animal Care and Use Committee of Brown University (Providence, RI, USA). Six to 7 weeks-old female BALB/c mice (RRID: IMSR_JAX:000651) were purchased from Taconic. 50,000 cells were suspended in 50 μL ice-cold PBS and 50 μL Matrigel (Catalog # 354234, Corning, New York, USA), and 100 uL was injected subcutaneously into the rear flanks. Once tumor volume reached at least 100 mm^3, mice were randomly assigned to one of seven groups (3 mice/group): Control (isotype), elraglusib, elraglusib+Isotype, anti-PD-1, anti-PD-L1, elraglusib+anti-PD-1, and elraglusib+anti-PD-L1. All treatments were delivered by IP injection on the following dosing schedule: Isotype (70 mg/kg, twice a week), elraglusib (70 mg/kg, twice a week), anti-PD-1 (10 mg/kg, twice a week), anti-PD-L1 (10 mg/kg, twice a week). The treatment continued until mice developed signs of discomfort from excessive tumor growth. Mice were weighed once a week to monitor signs of drug toxicity. The length (L) and width (W) of the masses were measured three times per week with a digital caliper, and the tumor volume was calculated by applying the formula: 0.5LW2. Collection of whole blood and serum was performed by cardiac puncture and sent to Antech GLP for blood cell count and chemistry tests, or in-house cytokine profiling. […]
# [3] = tested on: refractory solid tumors of multiple tissue origins; experiment: Phase 1 clinical trial of elraglusib (NCT03678883), PFS and OS; type: in vivo, human; conditions: patients analysed, n=19, multiple tumor types
# Procedure: Archival tumor specimens and peripheral blood samples were collected from patients enrolled in the Phase I study of Elraglusib (9-ING-41), a small molecule selective glycogen synthase kinase-3 beta (GSK-3b) inhibitor, as monotherapy or combined with cytotoxic regimens in patients with relapsed or refractory hematologic malignancies or solid tumors (Clinicaltrials.gov NCT03678883) who received treatment at the Lifespan Cancer Institute (Providence, RI, USA). The study was conducted in accordance with the Declaration of Helsinki and the International Conference on Harmonization Good Clinical Practice guidelines. The study protocol was approved by the Institutional Review Board (IRB) of Rhode Island Hospital under protocol number 1324888-120. The patients also participated in a Lifespan Cancer Institute research protocol designed to investigate molecular and genetic features of tumors and mechanisms of resistance (Rhode Island Hospital IRB protocol number 449060-38). All patients provided written informed consent.
structure (smiles),measurement,setting,value
"Cn1cc(C2=C(c3coc4ccc(F)cc34)C(=O)NC2=O)c2cc3c(cc21)OCO3 [elraglusib, 3-(5-fluorobenzofuran-3-yl)-4-(5-methyl-5H-[1,3]dioxolo[4,5-f]indol-7-yl)-1H-pyrrole-2,5-dione]",tumor cell death,HT-29 GFP+ cells; 5 μM elraglusib and NK-92 vs immune cell only and DMSO only,increased tumor cell death
same,tumor cell death,HT-29 GFP+ cells; 5 μM elraglusib and TALL-104 vs drug-only or T cell-only,increased tumor cell death
same,pyroptotic events,[1]; co-culture of CRC and TALL-104 cells with 5 μM elraglusib,significant increase in pyroptotic events
same,pyroptotic events,"[1]; drug-only condition, no immune cells",did not observe any pyroptotic events
same,survival (Kaplan-Meier) as compared to the control,[2],statistically significant improved survival
same,median OS,[3],101 days
same,median PFS,[3],75.9 days
